Reference: ChEMBL document CHEMBL3885881, “DrugMatrix”

Species on record: Rattus norvegicus
Experiment: DrugMatrix - Regimen: Daily Repeat
Type: toxicity, organism-based, Sprague-Dawley
Set-up: regimen Daily Repeat, gender Male, age 6-8 weeks
Conditions: in vivo, po, route oral GAVAGE, […]; for ABSOLUTE BASOPHIL / ABSOLUTE EOSINOPHIL / ABSOLUTE LYMPHOCYTE / ABSOLUTE MONOCYTE / ABSOLUTE SEGMENTED NEUTROPHIL / BASOPHIL / EOSINOPHIL / ERYTHROCYTE COUNT / HEMATOCRIT / HEMOGLOBIN / LEUKOCYTE COUNT / LYMPHOCYTE / MEAN CORPUSCULAR HEMOGLOBIN / MEAN CORPUSCULAR HEMOGLOBIN CONCENTRATION / MEAN CORPUSCULAR VOLUME / MONOCYTE / NEUTROPHIL / NUCLEATED RED BLOOD CELLS / PLATELET COUNT: tissue Blood; for ALANINE AMINOTRANSFERASE / ALBUMIN / ALKALINE PHOSPHATASE / ASPARTATE AMINOTRANSFERASE / BLOOD UREA NITROGEN / CARBON DIOXIDE / CHLORIDE / CHOLESTEROL / CREATINE PHOSPHOKINASE / CREATININE / GLUCOSE / LACTATE DEHYDROGENASE / LIPASE / PHOSPHORUS / POTASSIUM / SODIUM / TOTAL BILIRUBIN / TOTAL PROTEIN / URIC ACID: tissue Plasma
[1] = 52 mg/kg, 72 h, dose level High, time 3 day
[2] = 52 mg/kg, 120 h, dose level High, time 5 day
[3] = 72 h, dose 5.2 mg/Kg, dose level Low, time 3 day
[4] = 120 h, dose 5.2 mg/Kg, dose level Low, time 5 day

SMILES: CC(C(=O)O)c1cccc(Oc2ccccc2)c1 (configuration not stated) [FENOPROFEN]
- ABSOLUTE BASOPHIL [1]: 0 CELLS/uL
- ABSOLUTE EOSINOPHIL [1]: 0 CELLS/uL
- ABSOLUTE LYMPHOCYTE [1]: 16297.67 CELLS/uL
- ABSOLUTE MONOCYTE [1]: 471.33 CELLS/uL
- ABSOLUTE SEGMENTED NEUTROPHIL [1]: 2164.33 CELLS/uL
- BASOPHIL [1]: 0%
- EOSINOPHIL [1]: 0%
- ERYTHROCYTE COUNT [1]: 5.47 x10E6/uL
- HEMATOCRIT [1]: 33.6%
- HEMOGLOBIN [1]: 13.27 G/DL
- LEUKOCYTE COUNT [1]: 18.93 x10E3/uL
- LYMPHOCYTE [1]: 87.33%
- MEAN CORPUSCULAR HEMOGLOBIN [1]: 24.23 pg
- MEAN CORPUSCULAR HEMOGLOBIN CONCENTRATION [1]: 39.5 G/DL
- MEAN CORPUSCULAR VOLUME [1]: 61.37 fL
- MONOCYTE [1]: 2.33%
- NEUTROPHIL [1]: 10.33%
- NUCLEATED RED BLOOD CELLS [1]: 0 /100WBC
- PLATELET COUNT [1]: 1245.33 x10E3/uL
- ALANINE AMINOTRANSFERASE [1]: 68.33 u/L
- ALBUMIN [1]: 3.93 G/DL
- ALKALINE PHOSPHATASE [1]: 437.33 u/L
- ASPARTATE AMINOTRANSFERASE [1]: 102 u/L
- BLOOD UREA NITROGEN [1]: 14.67 mg/dL
- CARBON DIOXIDE [1]: 28.67 mmol/L
- CHLORIDE [1]: 102.33 MEQ/L
- CHOLESTEROL [1]: 63.33 mg/dL
- CREATINE PHOSPHOKINASE [1]: 360.67 u/L
- CREATININE [1]: 0.15 mg/dL
- GLUCOSE [1]: 149.67 mg/dL
- LACTATE DEHYDROGENASE [1]: 593 u/L
- LIPASE [1]: 12 u/L
- PHOSPHORUS [1]: 11.6 mg/dL
- POTASSIUM [1]: 7.04 MEQ/L
- SODIUM [1]: 141.5 MEQ/L
- TOTAL BILIRUBIN [1]: 0.17 mg/dL
- TOTAL PROTEIN [1]: 5.37 G/DL
- URIC ACID [1]: 1.53 mg/dL
- ABSOLUTE BASOPHIL [2]: 0 CELLS/uL
- ABSOLUTE EOSINOPHIL [2]: 54 CELLS/uL
- ABSOLUTE LYMPHOCYTE [2]: 12815.33 CELLS/uL
- ABSOLUTE MONOCYTE [2]: 148.67 CELLS/uL
- ABSOLUTE SEGMENTED NEUTROPHIL [2]: 1848.67 CELLS/uL
- BASOPHIL [2]: 0%
- EOSINOPHIL [2]: 0.33%
- ERYTHROCYTE COUNT [2]: 5.11 x10E6/uL
- HEMATOCRIT [2]: 33%
- HEMOGLOBIN [2]: 13.3 G/DL
- LEUKOCYTE COUNT [2]: 14.87 x10E3/uL
- LYMPHOCYTE [2]: 85.67%
- MEAN CORPUSCULAR HEMOGLOBIN [2]: 26 pg
- MEAN CORPUSCULAR HEMOGLOBIN CONCENTRATION [2]: 40.3 G/DL
- MEAN CORPUSCULAR VOLUME [2]: 64.53 fL
- MONOCYTE [2]: 1%
- NEUTROPHIL [2]: 13%
- NUCLEATED RED BLOOD CELLS [2]: 0.33 /100WBC
- PLATELET COUNT [2]: 1200 x10E3/uL
- ALANINE AMINOTRANSFERASE [2]: 64.67 u/L
- ALBUMIN [2]: 4.13 G/DL
- ALKALINE PHOSPHATASE [2]: 380.33 u/L
- ASPARTATE AMINOTRANSFERASE [2]: 93.33 u/L
- BLOOD UREA NITROGEN [2]: 13.33 mg/dL
- CARBON DIOXIDE [2]: 23 mmol/L
- CHLORIDE [2]: 100.67 MEQ/L
- CHOLESTEROL [2]: 57.33 mg/dL
- CREATINE PHOSPHOKINASE [2]: 263.67 u/L
- CREATININE [2]: 0.17 mg/dL
- GLUCOSE [2]: 175 mg/dL
- LACTATE DEHYDROGENASE [2]: 284 u/L
- LIPASE [2]: 10.67 u/L
- PHOSPHORUS [2]: 12 mg/dL
- POTASSIUM [2]: 6.69 MEQ/L
- SODIUM [2]: 141.5 MEQ/L
- TOTAL BILIRUBIN [2]: 0.2 mg/dL
- TOTAL PROTEIN [2]: 5.3 G/DL
- URIC ACID [2]: 1.77 mg/dL
- ABSOLUTE BASOPHIL [3]: 0 CELLS/uL
- ABSOLUTE EOSINOPHIL [3]: 60.67 CELLS/uL
- ABSOLUTE LYMPHOCYTE [3]: 12618.67 CELLS/uL
- ABSOLUTE MONOCYTE [3]: 219.33 CELLS/uL
- ABSOLUTE SEGMENTED NEUTROPHIL [3]: 2034.67 CELLS/uL
- BASOPHIL [3]: 0%
- EOSINOPHIL [3]: 0.33%
- ERYTHROCYTE COUNT [3]: 5.49 x10E6/uL
- HEMATOCRIT [3]: 35%
- HEMOGLOBIN [3]: 14.13 G/DL
- LEUKOCYTE COUNT [3]: 14.93 x10E3/uL
- LYMPHOCYTE [3]: 84%
- MEAN CORPUSCULAR HEMOGLOBIN [3]: 25.83 pg
- MEAN CORPUSCULAR HEMOGLOBIN CONCENTRATION [3]: 40.37 G/DL
- MEAN CORPUSCULAR VOLUME [3]: 63.93 fL
- MONOCYTE [3]: 1.67%
- NEUTROPHIL [3]: 14%
- NUCLEATED RED BLOOD CELLS [3]: 0 /100WBC
- PLATELET COUNT [3]: 1213.67 x10E3/uL
- ALANINE AMINOTRANSFERASE [3]: 79.67 u/L
- ALBUMIN [3]: 3.83 G/DL
- ALKALINE PHOSPHATASE [3]: 345 u/L
- ASPARTATE AMINOTRANSFERASE [3]: 100.33 u/L
- BLOOD UREA NITROGEN [3]: 10.67 mg/dL
- CARBON DIOXIDE [3]: 29 mmol/L
- CHLORIDE [3]: 101 MEQ/L
- CHOLESTEROL [3]: 66 mg/dL
- CREATINE PHOSPHOKINASE [3]: 384 u/L
- CREATININE [3]: 0.14 mg/dL
- GLUCOSE [3]: 162.33 mg/dL
- LACTATE DEHYDROGENASE [3]: 245 u/L
- LIPASE [3]: 12.33 u/L
- PHOSPHORUS [3]: 11.73 mg/dL
- POTASSIUM [3]: 6.15 MEQ/L
- SODIUM [3]: 143.37 MEQ/L
- TOTAL BILIRUBIN [3]: 0.17 mg/dL
- TOTAL PROTEIN [3]: 5.43 G/DL
- URIC ACID [3]: 1.5 mg/dL
- ABSOLUTE BASOPHIL [4]: 0 CELLS/uL
- ABSOLUTE EOSINOPHIL [4]: 43 CELLS/uL
- ABSOLUTE LYMPHOCYTE [4]: 9244.67 CELLS/uL
- ABSOLUTE MONOCYTE [4]: 125.67 CELLS/uL
- ABSOLUTE SEGMENTED NEUTROPHIL [4]: 820 CELLS/uL
- BASOPHIL [4]: 0%
- EOSINOPHIL [4]: 0.33%
- ERYTHROCYTE COUNT [4]: 5.69 x10E6/uL
- HEMATOCRIT [4]: 34.97%
- HEMOGLOBIN [4]: 13.73 G/DL
- LEUKOCYTE COUNT [4]: 10.23 x10E3/uL
- LYMPHOCYTE [4]: 90.33%
- MEAN CORPUSCULAR HEMOGLOBIN [4]: 24.13 pg
- MEAN CORPUSCULAR HEMOGLOBIN CONCENTRATION [4]: 39.3 G/DL
- MEAN CORPUSCULAR VOLUME [4]: 61.43 fL
- MONOCYTE [4]: 1.33%
- NEUTROPHIL [4]: 8%
- NUCLEATED RED BLOOD CELLS [4]: 0 /100WBC
- PLATELET COUNT [4]: 1094 x10E3/uL
- ALANINE AMINOTRANSFERASE [4]: 64 u/L
- ALBUMIN [4]: 4.07 G/DL
- ALKALINE PHOSPHATASE [4]: 422.67 u/L
- ASPARTATE AMINOTRANSFERASE [4]: 91.67 u/L
- BLOOD UREA NITROGEN [4]: 12 mg/dL
- CARBON DIOXIDE [4]: 28 mmol/L
- CHLORIDE [4]: 102.33 MEQ/L
- CHOLESTEROL [4]: 57.33 mg/dL
- CREATINE PHOSPHOKINASE [4]: 306.67 u/L
- CREATININE [4]: 0.15 mg/dL
- GLUCOSE [4]: 153 mg/dL
- LACTATE DEHYDROGENASE [4]: 198.33 u/L
- LIPASE [4]: 11.67 u/L
- PHOSPHORUS [4]: 10.13 mg/dL
- POTASSIUM [4]: 6.12 MEQ/L
- SODIUM [4]: 142.33 MEQ/L
- TOTAL BILIRUBIN [4]: 0.13 mg/dL
- TOTAL PROTEIN [4]: 5.53 G/DL
- URIC ACID [4]: 1.17 mg/dL
